Data taken from PMC7313537 (PLoS ONE, 2020).
Where two headings read alike, the source gives them in different places.

What was measured:
FLT3 = FLT3 (Homo sapiens, UniProt P36888); test: Enzyme selectivity panel; format: biochemical; conditions: 1 mM ATP
Procedure: (§2) The kinase assays were carried out at room temperature in HEPES 50 mM, pH 7.0, NaN3 0.02%, BSA 0.01%, Orthovanadate 0.1 mM, DTT 1 mM, MgCl2 10 mM in a final volume of 10 µL. Test compounds were transferred to the plate wells by ECHO liquid handler (Labcyte, San Jose, CA) with 0.5% dimethyl sulfoxide (DMSO) in the final assay. Peptide/kinase mixtures were diluted in the appropriate enzymatic buffer and 5µL of the mixture was added to a 384-well small volume black plate. Reactions were initiated by the addition of 5 µL ATP in reaction buffer, the final reaction mixture consisted of 500 nM peptide substrate, 1 mM ATP, and appropriate amount of specific kinase. […] The plates were then sealed and centrifuged at 1800 rpm for 2 minutes. […] Half maximal inhibitory concentration (IC50) determination was performed by fitting the curve of percent control activity versus the log of the compound concentration using the GraphPad Prism 6.0 software.

RSK2 [1] = biological target: T1, RSK2 (Homo sapiens, UniProt P51812); test: Enzyme selectivity panel; format: biochemical; conditions: 1 mM ATP
Procedure: as §2

SYK = SYK (Homo sapiens, UniProt P43405); test: Enzyme selectivity panel; format: biochemical; conditions: 1 mM ATP
Procedure: as §2

ABL1(E255K) = biological target: T2, ABL1(E255K) (Homo sapiens, UniProt P00519, E255K); test: Broader kinase panel (PerkinElmer); format: biochemical; conditions: 100 nM; read-out: Average Percent Inhibition
T2 construct: purchased In-house HTRF panel (56 kinases) and PerkinElmer (161-kinase panel)
Description: (§1) […]. […] […].

[2] = biological target: T3, AMPK-alpha2/beta1/gamma 1 (Homo sapiens, UniProt P54646); test: Broader kinase panel (PerkinElmer); format: biochemical; conditions: 100 nM; read-out: Average Percent Inhibition
T3 construct: purchased In-house HTRF panel (56 kinases) and PerkinElmer (161-kinase panel)
Description: as §1

AMPK = test: Broader kinase panel (PerkinElmer); format: biochemical; conditions: 100 nM
Description: as §1

AXL = biological target: T4, AXL (Homo sapiens, UniProt P30530); test: Broader kinase panel (PerkinElmer); format: biochemical; conditions: 100 nM; read-out: Average Percent Inhibition
T4 construct: purchased In-house HTRF panel (56 kinases) and PerkinElmer (161-kinase panel)
Description: as §1

AurA = biological target: T5, AurA (Homo sapiens, UniProt O14965); test: Broader kinase panel (PerkinElmer); format: biochemical; conditions: 100 nM; read-out: Average Percent Inhibition
T5 construct: purchased In-house HTRF panel (56 kinases) and PerkinElmer (161-kinase panel)
Description: as §1

CK1g3 (CSNK1G3) = biological target: T6, CK1g3 (CSNK1G3) (Homo sapiens, UniProt Q9Y6M4); test: Broader kinase panel (PerkinElmer); format: biochemical; conditions: 100 nM; read-out: Average Percent Inhibition
T6 construct: purchased In-house HTRF panel (56 kinases) and PerkinElmer (161-kinase panel)
Description: as §1

EGFR (ErbB1) T790M L858R = biological target: T7, EGFR (ErbB1) T790M L858R (Homo sapiens, UniProt P00533, L858R/T790M); test: Broader kinase panel (PerkinElmer); format: biochemical; conditions: 100 nM; read-out: Average Percent Inhibition
T7 construct: purchased In-house HTRF panel (56 kinases) and PerkinElmer (161-kinase panel)
Description: as §1

FES = biological target: T8, FES (Homo sapiens, UniProt P07332); test: Broader kinase panel (PerkinElmer); format: biochemical; conditions: 100 nM; read-out: Average Percent Inhibition
T8 construct: purchased In-house HTRF panel (56 kinases) and PerkinElmer (161-kinase panel)
Description: as §1

FGFR3 [K650E] = biological target: T9, FGFR3 [K650E] (Homo sapiens, UniProt P22607, K650E); test: Broader kinase panel (PerkinElmer); format: biochemical; conditions: 100 nM; read-out: Average Percent Inhibition
T9 construct: purchased In-house HTRF panel (56 kinases) and PerkinElmer (161-kinase panel)
Description: as §1

FMS = biological target: T10, FMS (Homo sapiens, UniProt P07333); test: Broader kinase panel (PerkinElmer); format: biochemical; conditions: 100 nM; read-out: Average Percent Inhibition
T10 construct: purchased In-house HTRF panel (56 kinases) and PerkinElmer (161-kinase panel)
Description: as §1

GCK = biological target: T11, GCK (Homo sapiens, UniProt Q12851); test: Broader kinase panel (PerkinElmer); format: biochemical; conditions: 100 nM; read-out: Average Percent Inhibition
T11 construct: purchased In-house HTRF panel (56 kinases) and PerkinElmer (161-kinase panel)
Description: as §1

GSK3B = biological target: T12, GSK3B (Homo sapiens, UniProt P49841); test: Broader kinase panel (PerkinElmer); format: biochemical; conditions: 100 nM; read-out: Average Percent Inhibition
T12 construct: purchased In-house HTRF panel (56 kinases) and PerkinElmer (161-kinase panel)
Description: as §1

HIPK1 = biological target: T13, HIPK1 (Homo sapiens, UniProt Q86Z02); test: Broader kinase panel (PerkinElmer); format: biochemical; conditions: 100 nM; read-out: Average Percent Inhibition
T13 construct: purchased In-house HTRF panel (56 kinases) and PerkinElmer (161-kinase panel)
Description: as §1

HIPK2 = biological target: T14, HIPK2 (Homo sapiens, UniProt Q9H2X6); test: Broader kinase panel (PerkinElmer); format: biochemical; conditions: 100 nM; read-out: Average Percent Inhibition
T14 construct: purchased In-house HTRF panel (56 kinases) and PerkinElmer (161-kinase panel)
Description: as §1

ITK = biological target: T15, ITK (Homo sapiens, UniProt Q08881); test: Broader kinase panel (PerkinElmer); format: biochemical; conditions: 100 nM; read-out: Average Percent Inhibition
T15 construct: purchased In-house HTRF panel (56 kinases) and PerkinElmer (161-kinase panel)
Description: as §1

MAPKAPK3 = biological target: T16, MAPKAPK3 (Homo sapiens, UniProt Q16644); test: Broader kinase panel (PerkinElmer); format: biochemical; conditions: 100 nM; read-out: Average Percent Inhibition
T16 construct: purchased In-house HTRF panel (56 kinases) and PerkinElmer (161-kinase panel)
Description: as §1

MELK = biological target: T17, MELK (Homo sapiens, UniProt Q14680); test: Broader kinase panel (PerkinElmer); format: biochemical; conditions: 100 nM; read-out: Average Percent Inhibition
T17 construct: purchased In-house HTRF panel (56 kinases) and PerkinElmer (161-kinase panel)
Description: as §1

MSK2 = biological target: T18, MSK2 (Homo sapiens, UniProt O75676); test: Broader kinase panel (PerkinElmer); format: biochemical; conditions: 100 nM; read-out: Average Percent Inhibition
T18 construct: purchased In-house HTRF panel (56 kinases) and PerkinElmer (161-kinase panel)
Description: as §1

PIM1 = biological target: T19, PIM1 (Homo sapiens, UniProt P11309); test: Broader kinase panel (PerkinElmer); format: biochemical; conditions: 100 nM; read-out: Average Percent Inhibition
T19 construct: purchased In-house HTRF panel (56 kinases) and PerkinElmer (161-kinase panel)
Description: as §1

PKC-alpha = biological target: T20, PKC-alpha (Homo sapiens, UniProt P17252); test: Broader kinase panel (PerkinElmer); format: biochemical; conditions: 100 nM; read-out: Average Percent Inhibition
T20 construct: purchased In-house HTRF panel (56 kinases) and PerkinElmer (161-kinase panel)
Description: as §1

PKCz = biological target: T21, PKCz (Homo sapiens, UniProt Q05513); test: Broader kinase panel (PerkinElmer); format: biochemical; conditions: 100 nM; read-out: Average Percent Inhibition
T21 construct: purchased In-house HTRF panel (56 kinases) and PerkinElmer (161-kinase panel)
Description: as §1

PKGa = biological target: T22, PKGa (Homo sapiens, UniProt Q13976); test: Broader kinase panel (PerkinElmer); format: biochemical; conditions: 100 nM; read-out: Average Percent Inhibition
T22 construct: purchased In-house HTRF panel (56 kinases) and PerkinElmer (161-kinase panel)
Description: as §1

PRAK = biological target: T23, PRAK (Homo sapiens, UniProt Q8IW41); test: Broader kinase panel (PerkinElmer); format: biochemical; conditions: 100 nM; read-out: Average Percent Inhibition
T23 construct: purchased In-house HTRF panel (56 kinases) and PerkinElmer (161-kinase panel)
Description: as §1

PRKX = biological target: T24, PRKX (Homo sapiens, UniProt P51817); test: Broader kinase panel (PerkinElmer); format: biochemical; conditions: 100 nM; read-out: Average Percent Inhibition
T24 construct: purchased In-house HTRF panel (56 kinases) and PerkinElmer (161-kinase panel)
Description: as §1

ROCK2 = biological target: T25, ROCK2 (Homo sapiens, UniProt O75116); test: Broader kinase panel (PerkinElmer); format: biochemical; conditions: 100 nM; read-out: Average Percent Inhibition
T25 construct: purchased In-house HTRF panel (56 kinases) and PerkinElmer (161-kinase panel)
Description: as §1

RSK2 [3] = biological target: T1, RSK2; test: Broader kinase panel (PerkinElmer); format: biochemical; conditions: 100 nM; read-out: Average Percent Inhibition
Description: as §1

SRM (SRMS) = biological target: T26, SRM (SRMS) (Homo sapiens, UniProt Q9H3Y6); test: Broader kinase panel (PerkinElmer); format: biochemical; conditions: 100 nM; read-out: Average Percent Inhibition
T26 construct: purchased In-house HTRF panel (56 kinases) and PerkinElmer (161-kinase panel)
Description: as §1

TRKC (NTRK3) = biological target: T27, TRKC (NTRK3) (Homo sapiens, UniProt Q16288); test: Broader kinase panel (PerkinElmer); format: biochemical; conditions: 100 nM; read-out: Average Percent Inhibition
T27 construct: purchased In-house HTRF panel (56 kinases) and PerkinElmer (161-kinase panel)
Description: as §1

TYRO3 = biological target: T28, TYRO3 (Homo sapiens, UniProt Q06418); test: Broader kinase panel (PerkinElmer); format: biochemical; conditions: 100 nM; read-out: Average Percent Inhibition
T28 construct: purchased In-house HTRF panel (56 kinases) and PerkinElmer (161-kinase panel)
Description: as §1

p70S6K = biological target: T29, p70S6K (Homo sapiens, UniProt P23443); test: Broader kinase panel (PerkinElmer); format: biochemical; conditions: 100 nM; read-out: Average Percent Inhibition
T29 construct: purchased In-house HTRF panel (56 kinases) and PerkinElmer (161-kinase panel)
Description: as §1

KG1 = test: Cell viability assay (CellTiter-Glo); format: cell-based; conditions: Homo sapiens; KG1, parental line to KG1a
[4] = Plasma protein binding (equilibrium dialysis); format: in vitro ADME; conditions: read-out: PPB (% free)
Procedure: The final DMSO content in all cases was <0.1%. Each condition was incubated in duplicate. For protein binding determination, the Multi-Equilibrium Dialyzer System™ and diachema membranes from Harvard Apparatus (Holliston, MA) were utilized. Equilibrium dialysis was carried out in Teflon cells separated by a dialysis membrane with a molecular weight cutoff of 10,000 Daltons. […] The cells were rotated at a speed of 12 rpm in a 37°C water bath for 2 hours. Following the incubation period, buffer and serum/plasma samples were drained separately into empty preweighed glass test tubes. The tubes were reweighed, and the exact volume of sample recovered from each side of the dialysis cell was calculated using the mass. A 75-μL aliquot of each sample (buffer or serum/plasma) was added to a 96-well plate containing a protein precipitation solution of 100% methanol and 0.2 μM dextrorphan as the internal standard; 75 μL of blank buffer or plasma/serum was added to the plate to ensure identical composition across all samples. Prior to analysis, samples prepared in the 96-well plate were vigorously vortexed for approximately 5 minutes and centrifuged for 10 minutes at ~1700 × g to remove denatured proteins and particulate matter. The supernatant was transferred and analyzed using LC-MS/MS.

[5] = Tolerability in xenograft studies; format: in vivo

T1 sequence (P51812 whole entry, species assumed): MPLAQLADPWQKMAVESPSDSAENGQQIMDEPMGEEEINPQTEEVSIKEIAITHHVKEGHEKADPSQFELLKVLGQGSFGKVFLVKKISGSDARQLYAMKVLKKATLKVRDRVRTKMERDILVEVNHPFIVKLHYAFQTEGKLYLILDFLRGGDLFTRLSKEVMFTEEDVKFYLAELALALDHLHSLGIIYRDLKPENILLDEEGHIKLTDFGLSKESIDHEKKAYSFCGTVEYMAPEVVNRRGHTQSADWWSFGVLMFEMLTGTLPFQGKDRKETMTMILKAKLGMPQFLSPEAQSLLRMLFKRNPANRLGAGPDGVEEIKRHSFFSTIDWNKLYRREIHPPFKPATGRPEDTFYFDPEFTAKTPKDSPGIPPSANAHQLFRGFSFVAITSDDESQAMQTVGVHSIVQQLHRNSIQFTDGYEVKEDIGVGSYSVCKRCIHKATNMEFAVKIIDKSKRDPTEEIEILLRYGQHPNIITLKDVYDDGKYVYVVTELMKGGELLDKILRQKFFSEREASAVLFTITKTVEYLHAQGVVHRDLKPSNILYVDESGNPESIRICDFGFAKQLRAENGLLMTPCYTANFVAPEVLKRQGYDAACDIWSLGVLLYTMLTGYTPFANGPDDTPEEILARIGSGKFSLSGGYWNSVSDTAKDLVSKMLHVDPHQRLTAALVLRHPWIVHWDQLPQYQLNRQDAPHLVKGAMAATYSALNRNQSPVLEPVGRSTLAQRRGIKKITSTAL
T28 sequence (Q06418 41-890): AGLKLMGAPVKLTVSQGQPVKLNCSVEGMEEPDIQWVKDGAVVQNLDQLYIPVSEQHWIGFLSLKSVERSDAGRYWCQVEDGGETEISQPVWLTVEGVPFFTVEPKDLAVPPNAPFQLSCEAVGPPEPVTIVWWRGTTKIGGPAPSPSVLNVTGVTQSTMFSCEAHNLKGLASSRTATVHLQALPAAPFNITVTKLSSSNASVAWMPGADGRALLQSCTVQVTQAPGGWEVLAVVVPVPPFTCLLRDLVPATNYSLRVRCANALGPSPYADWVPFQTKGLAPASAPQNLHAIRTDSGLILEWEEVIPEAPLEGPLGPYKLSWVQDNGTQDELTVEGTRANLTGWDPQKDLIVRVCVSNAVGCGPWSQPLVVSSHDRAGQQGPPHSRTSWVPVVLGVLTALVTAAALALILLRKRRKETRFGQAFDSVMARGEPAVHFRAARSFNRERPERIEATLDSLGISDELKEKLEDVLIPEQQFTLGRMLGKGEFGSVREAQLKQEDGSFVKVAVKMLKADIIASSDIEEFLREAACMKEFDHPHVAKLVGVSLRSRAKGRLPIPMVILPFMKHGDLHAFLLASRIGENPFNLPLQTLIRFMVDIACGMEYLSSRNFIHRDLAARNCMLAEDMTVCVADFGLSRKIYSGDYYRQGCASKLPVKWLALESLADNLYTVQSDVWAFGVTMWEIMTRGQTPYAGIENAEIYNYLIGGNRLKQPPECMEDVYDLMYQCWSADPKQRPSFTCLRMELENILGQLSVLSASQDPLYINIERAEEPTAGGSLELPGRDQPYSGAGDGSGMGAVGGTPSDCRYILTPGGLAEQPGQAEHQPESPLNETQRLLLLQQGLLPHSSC
T7 sequence (P00533 25-1210 T790M/L858R): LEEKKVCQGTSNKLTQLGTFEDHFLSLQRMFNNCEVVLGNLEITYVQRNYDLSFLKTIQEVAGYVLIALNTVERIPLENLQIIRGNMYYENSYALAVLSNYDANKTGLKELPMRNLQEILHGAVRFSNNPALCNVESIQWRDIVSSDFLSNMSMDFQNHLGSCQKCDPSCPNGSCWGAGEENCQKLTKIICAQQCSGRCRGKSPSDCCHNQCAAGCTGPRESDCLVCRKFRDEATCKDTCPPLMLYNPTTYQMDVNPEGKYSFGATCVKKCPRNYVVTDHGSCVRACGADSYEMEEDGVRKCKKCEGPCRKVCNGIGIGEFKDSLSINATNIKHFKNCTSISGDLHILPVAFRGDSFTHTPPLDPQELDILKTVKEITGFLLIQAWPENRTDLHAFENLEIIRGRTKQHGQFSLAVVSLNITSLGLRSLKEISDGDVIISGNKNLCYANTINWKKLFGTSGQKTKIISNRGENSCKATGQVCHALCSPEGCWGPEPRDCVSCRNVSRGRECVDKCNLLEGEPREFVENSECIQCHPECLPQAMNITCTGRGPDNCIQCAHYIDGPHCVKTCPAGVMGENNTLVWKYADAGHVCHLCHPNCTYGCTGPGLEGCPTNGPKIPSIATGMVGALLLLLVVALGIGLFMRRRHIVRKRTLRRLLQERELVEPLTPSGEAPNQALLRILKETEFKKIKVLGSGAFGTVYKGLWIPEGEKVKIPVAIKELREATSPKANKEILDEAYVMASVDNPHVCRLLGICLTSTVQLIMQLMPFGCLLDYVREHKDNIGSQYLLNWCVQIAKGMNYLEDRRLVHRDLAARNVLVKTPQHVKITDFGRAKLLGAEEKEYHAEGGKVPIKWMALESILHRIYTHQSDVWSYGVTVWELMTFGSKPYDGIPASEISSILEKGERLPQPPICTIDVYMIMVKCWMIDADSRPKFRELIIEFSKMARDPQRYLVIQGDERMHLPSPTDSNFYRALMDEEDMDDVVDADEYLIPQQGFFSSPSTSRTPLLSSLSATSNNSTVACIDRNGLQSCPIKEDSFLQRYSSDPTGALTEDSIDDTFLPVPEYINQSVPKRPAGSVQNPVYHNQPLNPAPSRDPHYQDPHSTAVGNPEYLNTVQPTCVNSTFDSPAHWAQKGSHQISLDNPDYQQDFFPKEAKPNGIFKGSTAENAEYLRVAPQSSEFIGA
T24 sequence (P51817 whole entry): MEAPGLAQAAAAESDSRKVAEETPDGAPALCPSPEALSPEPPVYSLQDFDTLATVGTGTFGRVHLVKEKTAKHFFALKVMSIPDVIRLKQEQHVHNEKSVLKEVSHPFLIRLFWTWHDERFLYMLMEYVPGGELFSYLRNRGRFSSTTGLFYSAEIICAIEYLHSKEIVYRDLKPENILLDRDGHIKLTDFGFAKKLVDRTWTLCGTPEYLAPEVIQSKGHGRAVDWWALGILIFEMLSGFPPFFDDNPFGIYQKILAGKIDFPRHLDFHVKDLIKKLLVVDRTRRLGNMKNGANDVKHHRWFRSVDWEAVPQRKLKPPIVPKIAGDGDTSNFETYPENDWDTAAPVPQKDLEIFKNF
T23 sequence (Q8IW41 whole entry): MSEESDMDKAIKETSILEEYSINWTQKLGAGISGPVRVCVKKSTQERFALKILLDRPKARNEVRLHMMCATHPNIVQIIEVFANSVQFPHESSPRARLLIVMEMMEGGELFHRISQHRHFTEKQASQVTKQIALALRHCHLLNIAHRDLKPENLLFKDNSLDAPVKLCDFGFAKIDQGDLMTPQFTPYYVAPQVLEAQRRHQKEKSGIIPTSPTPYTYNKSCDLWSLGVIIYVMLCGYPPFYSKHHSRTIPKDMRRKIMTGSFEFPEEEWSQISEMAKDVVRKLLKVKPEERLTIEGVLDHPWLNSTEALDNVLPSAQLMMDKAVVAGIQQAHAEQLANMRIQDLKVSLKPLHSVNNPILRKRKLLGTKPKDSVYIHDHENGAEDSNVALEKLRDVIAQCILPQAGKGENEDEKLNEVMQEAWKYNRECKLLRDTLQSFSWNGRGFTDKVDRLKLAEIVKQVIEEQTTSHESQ
T9 sequence (P22607 23-806 K650E): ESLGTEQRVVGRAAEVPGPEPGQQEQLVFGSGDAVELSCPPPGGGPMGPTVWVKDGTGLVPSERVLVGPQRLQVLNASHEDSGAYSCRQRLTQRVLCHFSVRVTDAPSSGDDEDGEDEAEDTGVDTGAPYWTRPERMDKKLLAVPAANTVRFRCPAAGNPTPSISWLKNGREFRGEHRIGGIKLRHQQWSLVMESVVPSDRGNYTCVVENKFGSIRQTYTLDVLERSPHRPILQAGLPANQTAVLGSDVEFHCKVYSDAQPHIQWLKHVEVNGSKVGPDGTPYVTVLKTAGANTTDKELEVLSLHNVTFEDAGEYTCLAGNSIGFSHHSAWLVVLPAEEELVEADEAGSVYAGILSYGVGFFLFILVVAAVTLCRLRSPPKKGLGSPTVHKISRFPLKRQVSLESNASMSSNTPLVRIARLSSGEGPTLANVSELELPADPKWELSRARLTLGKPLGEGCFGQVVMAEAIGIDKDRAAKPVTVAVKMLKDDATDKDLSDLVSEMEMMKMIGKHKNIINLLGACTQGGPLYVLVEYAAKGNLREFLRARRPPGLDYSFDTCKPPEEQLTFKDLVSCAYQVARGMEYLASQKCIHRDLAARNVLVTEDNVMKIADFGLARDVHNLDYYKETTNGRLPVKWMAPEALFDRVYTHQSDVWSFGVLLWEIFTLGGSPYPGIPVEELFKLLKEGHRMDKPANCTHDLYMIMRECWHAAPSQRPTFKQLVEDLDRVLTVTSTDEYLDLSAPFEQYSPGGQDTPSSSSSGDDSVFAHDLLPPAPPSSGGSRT
T12 sequence (P49841 whole entry, species assumed): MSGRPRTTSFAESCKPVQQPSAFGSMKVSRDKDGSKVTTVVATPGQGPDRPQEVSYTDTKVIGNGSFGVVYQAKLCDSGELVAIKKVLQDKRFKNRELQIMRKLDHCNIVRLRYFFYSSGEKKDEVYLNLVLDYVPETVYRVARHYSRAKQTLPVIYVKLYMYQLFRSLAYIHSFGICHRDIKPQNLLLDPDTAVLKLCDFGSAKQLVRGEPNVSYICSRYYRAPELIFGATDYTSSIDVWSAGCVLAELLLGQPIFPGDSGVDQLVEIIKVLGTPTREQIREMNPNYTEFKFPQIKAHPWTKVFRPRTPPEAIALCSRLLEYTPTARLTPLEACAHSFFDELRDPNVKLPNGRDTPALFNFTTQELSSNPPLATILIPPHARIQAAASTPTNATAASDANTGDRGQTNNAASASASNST

SMILES: CCN1C(=O)N(c2c(F)c(OC)cc(OC)c2F)Cc2cnc3[nH]c(CN4CCOCC4)cc3c21 [INCB054828, pemigatinib]
- IC50 (FLT3): > 10 µM
- IC50 (RSK2 [1]): > 10 µM
- IC50 (SYK): > 10 µM
- inhibition at 0.1 µM (ABL1(E255K)): 6%
- inhibition at 0.1 µM [2]: 7%
- Average Percent Inhibition (AMPK): 4%
- inhibition at 0.1 µM (AXL): -8%
- inhibition at 0.1 µM (AurA): 6%
- inhibition at 0.1 µM (CK1g3 (CSNK1G3)): 0%
- inhibition at 0.1 µM (EGFR (ErbB1) T790M L858R): 5%
- inhibition at 0.1 µM (FES): -11%
- inhibition at 0.1 µM (FGFR3 [K650E]): 84%
- inhibition at 0.1 µM (FMS): -10%
- inhibition at 0.1 µM (GCK): 1%
- inhibition at 0.1 µM (GSK3B): -1%
- inhibition at 0.1 µM (HIPK1): -1%
- inhibition at 0.1 µM (HIPK2): -1%
- inhibition at 0.1 µM (ITK): 2%
- inhibition at 0.1 µM (MAPKAPK3): 1%
- inhibition at 0.1 µM (MELK): 2%
- inhibition at 0.1 µM (MSK2): -7%
- inhibition at 0.1 µM (PIM1): -6%
- inhibition at 0.1 µM (PKC-alpha): 16%
- inhibition at 0.1 µM (PKCz): 1%
- inhibition at 0.1 µM (PKGa): 1%
- inhibition at 0.1 µM (PRAK): -2%
- inhibition at 0.1 µM (PRKX): 0%
- inhibition at 0.1 µM (ROCK2): 5%
- inhibition at 0.1 µM (RSK2 [3]): -2%
- inhibition at 0.1 µM (SRM (SRMS)): 1%
- inhibition at 0.1 µM (TRKC (NTRK3)): 3%
- inhibition at 0.1 µM (TYRO3): 1%
- inhibition at 0.1 µM (p70S6K): 8%
- GI50 (KG1): 0.001 µM
- fraction unbound at 2 h, 1 μM ([4]; Sprague Dawley, pH 7.4, rat plasma): 0.03
- fraction unbound at 2 h, 1 μM ([4]; pH 7.4, human plasma): 0.113
- overt toxicities ([5]; 0.3–1 mg/kg once daily, longer than 1 month): no overt toxicities were observed
- tolerability (body weight changes, clinical signs) ([5]; doses up to and including 1 mg/kg, up to 42 days): well tolerated
